Reference: ChEMBL document CHEMBL1671836, “Synthesis and Structure-Activity Relationships of Benzothienothiazepinone Inhibitors of Protein Kinase D” (ACS Med Chem Lett, 2011)
Calls of active or inactive are those of the source. The calls are words filed in the database; no cut-off is given here.

Columns and labels:
[1] = target: RAC-alpha serine/threonine-protein kinase (Homo sapiens) (UniProt P31749); test: Inhibition of AKT at < 10 uM by IMAP assay
[2] = target: Cyclin-dependent kinase 7 (Homo sapiens) (UniProt P50613); test: Inhibition of CDK7 at < 10 uM by TR-FRET assay
[3] = target: Serine/threonine-protein kinase PLK1 (Homo sapiens) (UniProt P53350); test: Inhibition of PLK1 at < 10 uM by TR-FRET assay
[4] = target: Serine/threonine-protein kinase PLK2 (Homo sapiens) (UniProt Q9NYY3); test: Inhibition of PLK2 at < 10 uM by TR-FRET assay
[5] = target: Protein kinase C alpha type (Homo sapiens) (UniProt P17252); test: Inhibition of human recombinant PKCalpha at < 10 uM after 10 mins by radiometric assay
[6] = target: Protein kinase C beta type (Homo sapiens) (UniProt P05771); test: Inhibition of human recombinant PKCbeta1 at < 10 uM after 10 mins by radiometric assay
[7] = target: Protein kinase C delta type (Homo sapiens) (UniProt Q05655); test: Inhibition of human recombinant PKCdelta at < 10 uM after 10 mins by radiometric assay
[8] = target: Calcium/calmodulin-dependent protein kinase type II subunit alpha (Homo sapiens) (UniProt Q9UQM7); test: Inhibition of human recombinant CAMK2alpha at < 10 uM after 10 mins by radiometric assay
[9] = Inhibition of human recombinant PKD3 after 10 mins by radiometric assay

Serine/threonine-protein kinase PLK1 (Homo sapiens), sequence (P53350 whole entry): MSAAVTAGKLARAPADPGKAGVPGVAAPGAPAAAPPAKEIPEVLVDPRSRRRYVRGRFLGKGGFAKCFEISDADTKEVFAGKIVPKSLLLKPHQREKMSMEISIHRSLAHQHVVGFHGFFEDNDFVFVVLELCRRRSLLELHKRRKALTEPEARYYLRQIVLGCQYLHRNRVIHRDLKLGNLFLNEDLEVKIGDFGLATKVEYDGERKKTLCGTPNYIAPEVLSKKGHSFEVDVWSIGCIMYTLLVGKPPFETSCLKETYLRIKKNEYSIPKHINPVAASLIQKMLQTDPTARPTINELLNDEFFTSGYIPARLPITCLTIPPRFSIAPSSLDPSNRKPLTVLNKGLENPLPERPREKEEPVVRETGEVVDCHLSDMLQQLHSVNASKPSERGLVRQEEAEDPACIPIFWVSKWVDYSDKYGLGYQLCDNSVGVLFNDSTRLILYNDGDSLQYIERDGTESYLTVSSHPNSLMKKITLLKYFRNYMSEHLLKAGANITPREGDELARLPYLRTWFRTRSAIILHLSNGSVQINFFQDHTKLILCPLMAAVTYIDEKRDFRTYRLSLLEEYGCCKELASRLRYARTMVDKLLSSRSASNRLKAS
Calcium/calmodulin-dependent protein kinase type II subunit alpha (Homo sapiens), sequence (Q9UQM7 whole entry): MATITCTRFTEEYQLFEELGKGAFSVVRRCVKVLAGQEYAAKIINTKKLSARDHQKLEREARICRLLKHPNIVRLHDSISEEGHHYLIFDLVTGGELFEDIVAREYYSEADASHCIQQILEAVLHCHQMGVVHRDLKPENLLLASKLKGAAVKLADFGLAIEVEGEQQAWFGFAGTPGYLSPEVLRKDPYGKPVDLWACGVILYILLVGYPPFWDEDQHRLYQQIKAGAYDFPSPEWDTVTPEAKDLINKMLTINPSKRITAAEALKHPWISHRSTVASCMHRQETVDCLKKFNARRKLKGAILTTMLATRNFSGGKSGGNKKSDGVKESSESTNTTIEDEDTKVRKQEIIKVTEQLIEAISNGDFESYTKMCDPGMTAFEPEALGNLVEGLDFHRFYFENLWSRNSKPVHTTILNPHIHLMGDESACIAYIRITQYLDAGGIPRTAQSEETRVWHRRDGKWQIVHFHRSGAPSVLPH
Protein kinase C delta type (Homo sapiens), sequence (Q05655 whole entry, looked up): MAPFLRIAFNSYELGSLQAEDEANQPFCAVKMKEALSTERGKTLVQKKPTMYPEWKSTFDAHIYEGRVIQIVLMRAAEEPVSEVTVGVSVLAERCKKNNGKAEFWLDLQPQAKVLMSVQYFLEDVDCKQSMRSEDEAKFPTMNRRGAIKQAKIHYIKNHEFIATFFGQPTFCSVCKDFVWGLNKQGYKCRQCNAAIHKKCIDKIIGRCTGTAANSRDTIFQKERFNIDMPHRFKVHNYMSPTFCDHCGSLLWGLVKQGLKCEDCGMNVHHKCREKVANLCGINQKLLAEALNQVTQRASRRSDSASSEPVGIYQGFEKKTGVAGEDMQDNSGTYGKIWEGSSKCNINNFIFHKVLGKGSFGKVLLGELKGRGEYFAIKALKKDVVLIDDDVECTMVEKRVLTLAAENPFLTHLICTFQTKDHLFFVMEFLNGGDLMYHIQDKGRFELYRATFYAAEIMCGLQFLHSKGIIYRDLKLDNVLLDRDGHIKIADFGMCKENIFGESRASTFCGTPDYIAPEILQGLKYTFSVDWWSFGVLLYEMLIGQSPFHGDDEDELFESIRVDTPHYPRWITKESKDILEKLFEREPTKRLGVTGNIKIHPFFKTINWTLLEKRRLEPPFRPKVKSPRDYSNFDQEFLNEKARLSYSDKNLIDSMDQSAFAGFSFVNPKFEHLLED
Protein kinase C beta type (Homo sapiens), sequence (P05771 2-671 limits assumed): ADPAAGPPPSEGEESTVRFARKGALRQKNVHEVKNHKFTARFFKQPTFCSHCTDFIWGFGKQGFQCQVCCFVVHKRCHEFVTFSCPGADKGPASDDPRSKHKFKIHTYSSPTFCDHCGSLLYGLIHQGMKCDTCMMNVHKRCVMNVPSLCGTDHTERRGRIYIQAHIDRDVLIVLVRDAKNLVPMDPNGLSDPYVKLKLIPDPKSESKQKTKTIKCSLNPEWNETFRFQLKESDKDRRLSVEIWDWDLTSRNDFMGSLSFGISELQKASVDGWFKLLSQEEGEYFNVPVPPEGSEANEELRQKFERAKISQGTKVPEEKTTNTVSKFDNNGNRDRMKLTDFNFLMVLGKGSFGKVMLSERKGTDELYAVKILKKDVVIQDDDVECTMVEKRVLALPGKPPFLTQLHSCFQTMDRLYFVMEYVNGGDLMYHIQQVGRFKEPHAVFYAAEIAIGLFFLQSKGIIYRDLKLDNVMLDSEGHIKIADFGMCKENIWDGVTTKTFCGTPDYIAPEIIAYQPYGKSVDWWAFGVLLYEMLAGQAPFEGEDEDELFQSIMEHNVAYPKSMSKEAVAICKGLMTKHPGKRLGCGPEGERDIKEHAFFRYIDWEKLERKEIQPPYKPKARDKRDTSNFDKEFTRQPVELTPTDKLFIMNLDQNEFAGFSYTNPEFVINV
Cyclin-dependent kinase 7 (Homo sapiens), sequence (P50613 whole entry): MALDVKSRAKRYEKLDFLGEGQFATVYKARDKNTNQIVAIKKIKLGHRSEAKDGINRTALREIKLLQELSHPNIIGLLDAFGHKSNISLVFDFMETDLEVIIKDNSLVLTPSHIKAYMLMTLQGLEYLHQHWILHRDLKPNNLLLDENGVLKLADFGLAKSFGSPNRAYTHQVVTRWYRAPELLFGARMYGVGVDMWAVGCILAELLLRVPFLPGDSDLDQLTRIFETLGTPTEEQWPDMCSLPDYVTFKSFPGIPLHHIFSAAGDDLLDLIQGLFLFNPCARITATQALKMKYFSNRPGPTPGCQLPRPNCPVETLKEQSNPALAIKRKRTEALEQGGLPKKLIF
RAC-alpha serine/threonine-protein kinase (Homo sapiens), sequence (P31749 whole entry): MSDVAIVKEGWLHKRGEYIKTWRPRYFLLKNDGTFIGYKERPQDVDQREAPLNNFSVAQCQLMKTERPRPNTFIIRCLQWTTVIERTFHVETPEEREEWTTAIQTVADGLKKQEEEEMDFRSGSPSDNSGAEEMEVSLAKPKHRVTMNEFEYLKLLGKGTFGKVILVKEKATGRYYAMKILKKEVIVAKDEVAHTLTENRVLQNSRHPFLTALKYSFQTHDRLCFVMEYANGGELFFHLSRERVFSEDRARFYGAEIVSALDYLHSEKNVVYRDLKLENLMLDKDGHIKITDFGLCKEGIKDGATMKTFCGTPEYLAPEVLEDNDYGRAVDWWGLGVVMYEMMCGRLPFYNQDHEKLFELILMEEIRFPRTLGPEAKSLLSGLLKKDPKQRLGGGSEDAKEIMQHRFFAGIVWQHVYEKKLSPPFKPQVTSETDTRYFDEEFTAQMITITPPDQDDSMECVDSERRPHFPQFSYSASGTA
Serine/threonine-protein kinase PLK2 (Homo sapiens), sequence (Q9NYY3 whole entry, looked up): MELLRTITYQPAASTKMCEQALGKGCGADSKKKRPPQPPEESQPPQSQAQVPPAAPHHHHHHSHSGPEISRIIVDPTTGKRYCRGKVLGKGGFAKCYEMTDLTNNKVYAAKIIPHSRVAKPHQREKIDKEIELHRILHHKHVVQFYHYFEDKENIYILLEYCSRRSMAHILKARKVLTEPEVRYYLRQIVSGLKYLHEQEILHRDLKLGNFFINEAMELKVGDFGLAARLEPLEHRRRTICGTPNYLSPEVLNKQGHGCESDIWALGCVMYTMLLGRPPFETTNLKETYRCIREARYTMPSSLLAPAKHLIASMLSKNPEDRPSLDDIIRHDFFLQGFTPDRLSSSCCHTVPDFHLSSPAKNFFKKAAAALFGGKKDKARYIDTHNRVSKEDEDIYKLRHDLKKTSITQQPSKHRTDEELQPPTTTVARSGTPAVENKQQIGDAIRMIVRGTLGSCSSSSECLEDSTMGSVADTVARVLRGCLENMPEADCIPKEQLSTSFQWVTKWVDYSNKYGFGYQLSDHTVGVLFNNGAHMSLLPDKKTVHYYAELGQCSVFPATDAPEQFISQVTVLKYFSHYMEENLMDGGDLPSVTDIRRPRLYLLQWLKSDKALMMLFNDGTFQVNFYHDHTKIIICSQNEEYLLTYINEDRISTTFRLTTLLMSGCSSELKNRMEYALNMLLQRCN

Structure (SMILES)	inhibition [1]	inhibition [2]	inhibition [3]	inhibition [4]	inhibition [5]	inhibition [6]	inhibition [7]	inhibition [8]	IC50 [9] [nM]
O=C1NCCCSc2c1sc1ccc(O)cc21	inactive	inactive	inactive	inactive	inactive	inactive	inactive	inactive	
[N-]=[N+]=Nc1ccc2sc3c(c2c1)SCCNC3=O	inactive	inactive	inactive	inactive	inactive	inactive	inactive	< 40%	
O=C1NCCCc2c1oc1ccc(O)cc21	inactive	inactive	inactive	inactive	inactive	inactive	inactive	inactive	
COc1ccc2sc3c(c2c1)SCCCNC3=O	inactive	inactive	inactive	inactive	inactive	inactive	inactive	inactive	
O=C1NCCCc2c1[nH]c1ccc(O)cc21	inactive	inactive	inactive	inactive	inactive	inactive	inactive	< 40%	
O=C1NCCSc2c1sc1ccc(O)cc21	inactive	inactive	inactive	inactive	inactive	inactive	inactive	inactive	
COc1ccc2sc3c(c2c1)SCCNC3=O	inactive	inactive	inactive	inactive	inactive	inactive	inactive	inactive	
COc1ncc2sc3c(c2n1)SCCNC3=O	inactive	inactive	inactive	inactive	inactive	inactive	inactive	inactive	50
